# Legend:
# Type in all cases: cell-based, human
# DNMT1 mRNA = assay: DNMT1 RNA expression by real-time PCR
# Protocol: (§1) DNMT1 protein expression was measured by Western Blotting after exposure to RX-3117 for 24 or 48 hr. DNMT1 RNA expression was measured by real-time PCR after 24 and 48 hr exposure to RX-3117. DNMT enzyme activity was measured in isolated nuclei after exposure 1 μM RX-3117 or 5 μM aza-CdR using a DNA methyltransferase assay kit provided by EpiGentek using the ability of a CpG dinding domain to bind to methylated DNA. In A549 cells the effect of 5 μM RX-3117 on overall methylation was measured with a specific antibody against 5-methyl-cytosine. Bands on Western blots were visualized using appropriate InfraRedDye using an Odyssey InfraRed imager.
# [1] = test system: A2780 ovarian cancer cells and NSCLC cell lines; assay: Radiosensitizing effect, summary over cell lines; settings: preincubation, pulse and fractionated irradiation
# Protocol: Exponential growing A2780, SW1573, A549, H460 and SW1573/G-cells were exposed to 1 μM RX-3117 or untreated (control) for 24 h and irradiated with single doses γ-radiation (0-6 Gy) using a ^60Co source (Gammacell 200, Atomic Energy of Canada, Ltd). Subsequently, 500 cells/T25 flasks were plated and allowed to form colonies. After ten days colonies were fixed with 100% ethanol and stained with 10% Giemsa stain solution (Merck Chemicals BV, Amsterdam, the Netherlands) for colonies counting. Plating efficiency (PE) was calculated by dividing the number of colonies formed through the number of cells plated and normalized for cytotoxicity induced by control. To illustrate the effect of RX-3117 on radiation, dose modifying factor (DMF) was calculated as described earlier (Bijnsdorp I V, van den Berg J, Kuipers G K, Wedekind L E, Slotman B J, van Rijn J, Lafleur M V M and Sminia P: Radiosensitizing potential of the selective cyclooygenase-2 (COX-2) inhibitor meloxicam on human glioma cells. J Neurooncol 85: 25-31, 2007).
# DNMT1 = DNMT1 protein expression by Western Blotting; settings: for downregulation of DNMT1 protein expression: A549 and SW1573, 5-50 μM
# Protocol: (§2) The mechanism of cell cycle arrest was investigated by measuring cell cycle proteins expression using western blotting. The influence of RX-3117 on protein expression during different treatment conditions was analyzed by western blot. Cells were lysed using cell lysis buffer 1× (Cell Signaling, Danvers, Mass., USA) containing 4% protease inhibitor cocktail (Roche Diagnostics, Mannheim, Germany) on ice for 30 minutes and centrifuged for 10 minutes at 4° C. at 14,000 rpm. The protein containing supernatant was collected and the Bio-Rad assay was performed to determine protein amount as described in Lemos et al., Pharmacogenomics, 12(2):159-70 (2011). The following antibodies were used for protein expression: DNMT1 (Cell Signaling, 1:1000 #5032S), DNMT3A (Cell Signaling 1:1000 #2160S), DNMT3B (Abcam, 1; 1000), Chk2 (Cell Signaling 1:1000 #6334P), Chk1 (Cell Signaling 1:1000), p-CDC25C (Cell Signaling 1:1000 #4901S), Cdk1 (Cell Signaling 1:1000 #9112S), Cdk2 (Cell Signaling 1:1000 #2546S), wee1 (Cell Signaling 1:1000), 5139-γH2A.X (Cell Signaling, 1:1000), β actin (Sigma, 1:10,000), Caspase 9 (Cell Signaling, 1:1000), PARP (Roche 2003, 1:1000), p53 (Cell Signaling, 1:1000, #9282). The antibodies were diluted in 1:1 solution Rockland buffer (Rockland Inc., Philadelphia, Pa., USA) and PBS supplemented with 0.05% Tween® 20. The proteins were separated in 20% SDS-PAGE and transferred to a PVDF membrane. For fluorescent signal secondary antibodies goat anti-mouse InfraRedDye and goat anti-rabbit InfraRedDye were used. The proteins were detected by an Odyssey InfraRed Imager (Li-COR Bioscience, Lincoln, Nebr., USA).
# as §1
# [2] = test system: overall methylation of DNA; assay: Overall methylation of DNA with antibody against 5-methyl-cytosine; settings: A549, 5 μM, 48 hr exposure
# Protocol: as §1
# SW1573 cells = assay: Protein expression by western blot
# Protocol: as §2
# (§3) The influence of RX-3117 on protein expression during different treatment conditions was analyzed by western blot. Cells were lysed using 1× cell lysis buffer (Cell Signaling, Danvers, Mass., USA) containing 4% protease inhibitor cocktail (Roche Diagnostics, Mannheim, Germany) on ice for 30 minutes and centrifuged for 10 minutes at 4° C. at 14,000 rpm. Bio-Rad assay was performed to determine protein amount in the collected supernatant as described earlier (Lemos C, Kathmann I, Giovannetti E, Calhau C, Jansen G and Peters G J: Impact of cellular folate status and epidermal growth factor receptor expression on BCRP/ABCG2-mediated resistance to gefitinib and erlotinib. Br J Cancer 100: 1120-7, 2009). The following antibodies were used for protein expression: γH2A.X (cat#9718, Cell Signaling, 1:1000), β-actin (Sigma, 1:10,000), Cdc25C Ser216 (cat#4901, Cell Signaling, 1:1000), Cdk1 Tyr15 (cat#9111, Cell Signaling, 1:1000), […] (cat#2197S, Cell Signaling, 1:1000), Histone 3 (cat#4499, Cell Signaling). Antibodies were diluted in 1:1 solution with Rockland buffer (Rockland Inc, Philadelphia, Pa.) and phosphate buffered saline (PBS) supplemented with 0.05 Tween 20. Proteins were separated in 20% SDS-PAGE gel and transferred to polyvinylidene difluoride (PVDF) membrane. For fluorescent signal secondary anti-bodies goat anti-mouse InfraRedDye and goat anti-rabbit InfraRedDye were used. Proteins were detected by an Odyssey InfraRed Imager (Li-COR Bioscience, Lincoln, Nebr.).
# A549 cells = assay: Protein expression by western blot
# Protocol: as §2, §3
# [3] = SW1573, 10 μM, 48 hour exposure
# [4] = SW1573, 24 hour exposure to increasing concentrations
smiles,measurement,setting,value
"Nc1ccn([C@@H]2C(F)=C(CO)[C@@H](O)[C@H]2O)c(=O)n1 [RX-3117, 4-amino-1-((1S,4R,5S)-2-fluoro-4,5-dihydroxy-3-hydroxymethyl-cyclopent-2-enyl)-1H-pyrimidin-2-one]",DNMT1 mRNA,"DNMT1 mRNA; A549 and SW1573, 24 hours exposure",not affected
same,DNMT1 mRNA,"DNMT1 mRNA; A549 and SW1573, 48 hr",affected moderately
same,dose modifying factors,[1],1.4-1.8
same,DNMT1 protein expression,"DNMT1; A549, at higher dose (1-75 μM tested)",down regulates
same,downregulation of DNMT1 protein expression,DNMT1; 24 hour exposure,5-20%
same,downregulation of DNMT1 protein expression,DNMT1; 48 hr,> 90%
same,DNMT1 protein expression,"DNMT1; A2780, 1 μM, 24 hr",protein down regulation was already observed
same,decrease of overall methylation of DNA,[2],25%
same,"γH2A.X protein expression, combination with irradiation","SW1573 cells; SW1573, 0.3 μM plus irradiation",more pronounced
same,double strand break damage marker γH2A.X,"SW1573 cells; SW1573, 0.3 μM, 48 h exposure",increased
same,expression of p16INK4A and MGMT,"SW1573 cells; SW1573, 5 μM, 24 hr exposure",increased
same,Chk1 and Cdk2 expression levels,SW1573 cells; [3],increased
same,p-Cdc25C expression levels,SW1573 cells; [3],decreasing
same,cleaved PARP,SW1573 cells; [4],induced cleaved PARP
same,pro-caspase 9,SW1573 cells; [4],decreased
same,wee1 expression levels,SW1573 cells; [4],decreased
same,"double-strand breaks (DSB), biomarker γH2A.X","SW1573 cells; SW1573, 48 hour exposure",induced double-strand breaks
same,p53 expression levels,"A549 cells; A549, 1 μM and 5 μM",increased
same,expression of p16INK4A and MGMT,"A549 cells; A549, 5 μM, 24 hr exposure",increased
same,DNMT3A and DNMT3B expression levels,"A549 cells; A549, 1-75 μM",increased
same,pro-caspase 9,"A549 cells; A549, 24 hour exposure to increasing concentrations",decreased
